Measured values from patent publication US6350742B1, “Compositions and methods for treating infections of the ear” (Carter-Wallace, Inc., priority 1998, dated 2002).

Experiments:
[1] = solubility in aqueous solutions and organic solvents; type: physicochemical
[2] = cited from earlier work
[3] = pH of a saturated solution in deionized water; type: physicochemical
[4] = tested on: mice; conditions: cited from earlier work
[5] = tested on: microbiota indigenous to the human ear; experiment: activity against microbiota of the ear
[6] = tested on: antibiotic resistant strains of H.pylori, staphylococci, streptococci, enterococci; experiment: activity against antibiotic resistant bacteria; conditions: enterococci and other bacterial and nosocomial infections
[7] = stability in the solid state; type: physicochemical; conditions: stored at ambient conditions
[8] = apparent partition coefficient between octanol and water; type: physicochemical; conditions: water buffered at pH 7.2
[9] = stability in aqueous solution; type: physicochemical; conditions: pre-packed and stored

SMILES: O=S1(=O)CCN(CN2CCS(=O)(=O)NC2)CN1 [Taurolidine, 4,4′-methylenebis (tetrahydro-1,2,4-thiadiazine)-1,1,1′,1′ tetraoxide]
- solubility ([1]; CHCl3): insoluble
- solubility ([1]; Dilute HCl): soluble
- solubility ([1]; Dilute NaOH): soluble
- solubility ([1]; EtOH): sparingly soluble
- solubility ([1]; Water, 20° C.): 1% at 20 °C
- cumulative dose shown to be safe and well tolerated ([2]; cumulative doses): exceeding 300 g
- systemic dose shown to be safe and well tolerated ([2]; systemic doses): exceeding 40 g/day
- pH of saturated solution [3]: 7.4
- teratogenicity [4]: non-teratogenic
- effect on growth of microbiota indigenous to the human ear [5]: eradicates or controls the growth
- effect on antibiotic resistant strains [6]: destroys antibiotic resistant strains
- stability in the solid state [7]: acceptable stability in the solid state
- apparent partition coefficient between octanol and water [8]: approximately 0.13
- stability in aqueous solution [9]: stored over relatively long periods
